Data on nine compounds can be found in patent US10329542B2, “HBV RNAse H purification and enzyme inhibitors” (Saint Louis University, priority 2012, dated 2019).

By IC50 is commonly meant the point on the concentration scale where inhibition reaches its midpoint.

Read-outs that look alike come from different tables or passages of the source.

The subject of one assay is HBV genotype H RNAseH. Kind of assay: Oligonucleotide-directed RNAseH cleavage assay, HBV genotype H. In kind it is biochemical, Hepatitis B virus. The conditions noted are these: for Residual activity at 10 uM, Genotype H: ± standard deviation, 3 to 7 replicates; for Residual activity at 10 uM, Genotype H / Inhibition of HBV genotype H RNAseH: 10 μM; for Inhibition of HBV genotype H RNAseH: below threshold of irrelevant controls. A digest of the protocol:
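HBV RNAseH protein extracts mixed with internally ^32P-labeled RNA plus excess complementary DNA oligonucleotide (inverse-complement as negative control) in 65 mM Tris pH 8.0, 190 mM NaCl, 5 mM MgCl2, 1% DMSO; 90 min at 42° C. Cleavage products resolved by SDS-PAGE, quantified by autoradiography; IC50 by non-linear regression.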

A further assay has as its system HBV genotype C RNAseH. The assay is described as follows: Oligonucleotide-directed RNAseH cleavage assay, HBV genotype C. In kind it is biochemical, Hepatitis B virus. The conditions noted are these: class by concentration giving inhibition (10, 20, 60 μM). As to the method:
For the oligonucleotide-directed RNAseH cleavage assay (Gong et al., 2001), 6 μl protein extract (typical protein concentration 2.8 mg/ml) was mixed with 0.5 μg internally ^32P-labeled DRF+ RNA (nucleotides 2401-2605 of the duck HBV genome plus 60 nucleotides of flanking sequences from pBluescript) and 3 μg oligonucleotide D2507- or its corresponding negative control D2526+ on ice in 20 μl under the conditions in Table 1. Some reactions in FIG. 5 employed oligonucleotide D2543M-Sal or its D2453+ negative control as indicated. The reactions were incubated at 42° C. for 90 min. and terminated by addition of Laemmli protein loading buffer and boiling. The samples were resolved by 12% SDS-PAGE, the gels were stained with Coomassie blue to monitor protein loading, and labeled RNA was detected by autoradiography. Candidate inhibitors were dissolved in DMSO and added at the indicated concentrations during assembly of the reactions. Control reactions lacking the compounds contained DMSO as a vehicle control. The RNAseH autoradiograms were scanned and quantified with ImageJ. The oligonucleotides were: D2526+([…]; SEQ ID NO:8), D2507-([…]; SEQ ID NO:9), D2453+([…]; SEQ ID NO:10), and D2543M-Sal ([…]; SEQ ID NO:11).
Incremental improvements were developed in extraction of the HBV RNAseH from the bacterial cell pellets since the data were generated for Examples 1 and 2. Key among these was shifting from using a cup sonicator to a probe sonicator and reducing the duration of the sonication period from 3×60 second bursts to 3×20 second bursts. When the […] genotype C clone that had inconsistent activity under the old extraction conditions (FIG. 6C) was isolated under these conditions, it became consistently and robustly active (FIG. 16).

Assay [1] addresses T1, HBV genotype D RNAseH (HRHPL) (Hepatitis B virus genotype D subtype ayw, UniProt P03156, INS679M).
T1 construct: HRHPL contains HBV genotype D (Genbank V01460) polymerase residues 684-845; made in house; host or cells: E. coli BL21 codon+
The assay is described as follows: Oligonucleotide-directed RNAseH cleavage assay, HBV genotype D. In kind it is biochemical. The conditions noted are these: for Inhibition of HBV genotype D RNAseH / Residual activity at 10 uM, Genotype D: 10 μM; for Activity vs. HBV Biochemical vs. gtD: class by concentration giving inhibition (10, 20, 60 μM); for remaining activity at 10 µM: read-out: Residual activity at 10 uM, Genotype D; for Residual activity at 10 uM, Genotype D: ± standard deviation, 3 to 7 replicates; for IC50: read-out: IC50 against HBV genotype D RNAseH.

T1 sequence (P03156 680-832, added parts left off, stated change not applied): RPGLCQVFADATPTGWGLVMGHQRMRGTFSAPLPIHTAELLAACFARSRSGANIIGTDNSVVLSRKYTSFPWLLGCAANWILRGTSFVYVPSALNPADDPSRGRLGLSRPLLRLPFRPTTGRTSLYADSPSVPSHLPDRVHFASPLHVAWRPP

Regarding `Cc1nnc(C(=O)NC(C)(C)c2nc(C(=O)NCc3ccc(F)cc3)c(O)c(=O)n2C)o1` [Compound 11, Raltegravir, reference compound], in the assay on HBV genotype H RNAseH, the “Residual activity at 10 uM, Genotype H” value came to 63 ± 21 Percent DMSO control. For the same compound, the “Activity vs. HBV Biochemical vs. gtC” value with HBV genotype C RNAseH is on record as “++ (++ inhibition at 20 μM)”. Besides, in assay [1], the “Inhibition of HBV genotype D RNAseH” value is recorded as “inhibited the HBV RNAseH”, the “Activity vs. HBV Biochemical vs. gtD” value is “++ (++ inhibition at 20 μM)” and the remaining activity at 10 µM was 29 ± 18%.
On to `NCc1ccc(-c2ccc(Cc3cc(=O)n(O)c4ncccc34)cc2)cc1` [Compound 12, napthyridinone], for which, in the assay with HBV genotype H RNAseH, the “Inhibition of HBV genotype H RNAseH” value is reported as “inhibited” and the “Residual activity at 10 uM, Genotype H” value was found to be 17 ± 6 Percent DMSO control. Also, the “Activity vs. HBV Biochemical vs. gtC” value with HBV genotype C RNAseH is reported as “+++ (+++ inhibition at 10 μM)”. Besides, in assay [1], the “Residual activity at 10 uM, Genotype D” value came out at 28 ± 12 Percent DMSO control; the “Activity vs. HBV Biochemical vs. gtD” value is given as “+++ (+++ inhibition at 10 μM)”; the IC50 stood at 2.5 µM.
Regarding `[N-]=[N+]=NCc1cccc(C(=O)CC(=O)C(=O)O)c1` [Compound 40], in the assay with HBV genotype H RNAseH, the “Inhibition of HBV genotype H RNAseH” value is given as “inhibited” and the “Residual activity at 10 uM, Genotype H” value was found to be 22 ± 2 Percent DMSO control. Moreover, in assay [1], the “Residual activity at 10 uM, Genotype D” value is reported as 21 ± 16 Percent DMSO control and the “Activity vs. HBV Biochemical vs. gtD” value was “+++ (+++ inhibition at 10 μM)”.
With `CC(C)c1ccc(O)c(=O)c(O)c1` [Compound 46, beta-thujaplicinol], the IC50 in the assay on HBV genotype H RNAseH (read-out: IC50 against HBV genotype H RNAseH) stood at 2.3 ± 1.7 µM; in assay [1] (listed as β-thujaplicinol) it was 6 µM; in assay [1] (listed as βTJ), 5.9 ± 0.7 µM. For the same compound, in the assay with HBV genotype C RNAseH, the “Activity vs. HBV Biochemical vs. gtC” value is “+++ (+++ inhibition at 10 μM)”. The “Difference between IC50 against HIV-1 RNAseH and HBV RNAseH” value in assay [1] was roughly 10 fold. Also, the “Activity vs. HBV Biochemical vs. gtD” value in assay [1] is “+++ (+++ inhibition at 10 μM)”.
Regarding `Cc1cc(=O)oc2cc(O)c(O)cc12` [Compound 34], in the assay with HBV genotype H RNAseH, the “Inhibition of HBV genotype H RNAseH” value is “inhibited” and the “Residual activity at 10 uM, Genotype H” value amounted to 33 ± 12 Percent DMSO control. Further, in the assay with HBV genotype C RNAseH, the “Activity vs. HBV Biochemical vs. gtC” value was “+++ (+++ inhibition at 10 μM)”. In assay [1], the “Residual activity at 10 uM, Genotype D” value was 30 ± 15 Percent DMSO control and the “Activity vs. HBV Biochemical vs. gtD” value is listed as “++ (++ inhibition at 20 μM)”.
Take `Cc1c2cc(O)c(=O)cc-2oc2cc(O)c(O)cc12` [Compound 8]: in the assay on HBV genotype H RNAseH, the “Residual activity at 10 uM, Genotype H” value was found to be 74 ± 21 Percent DMSO control. In assay [1], the “Residual activity at 10 uM, Genotype D” value amounted to 33 ± 17 Percent DMSO control and the “Activity vs. HBV Biochemical vs. gtD” value is given as “++ (++ inhibition at 20 μM)”. In addition, the Inhibition entry in assay [1] (below 5 μM) was “ineffective”. Also, the Inhibition in assay [1] (between 10 and 30 μM) was 40-85%.
In the case of `COc1cc2c(cc1Cc1cccc(Cl)c1F)c(=O)c(C(=O)O)cn2[C@H](CO)C(C)C` [Compound 10, Elvitegravir, reference compound], the “Residual activity at 10 uM, Genotype H” value with HBV genotype H RNAseH is 66 ± 21 Percent DMSO control. Also, the “Activity vs. HBV Biochemical vs. gtC” value in the assay with HBV genotype C RNAseH is given as “++ (++ inhibition at 20 μM)”. In assay [1], the “Inhibition of HBV genotype D RNAseH” value is reported as “inhibited the HBV RNAseH”, the “Activity vs. HBV Biochemical vs. gtD” value was “++ (++ inhibition at 20 μM)” and the remaining activity at 10 µM turned out to be 30 ± 8%.
With `CCOc1ccc(-c2c3cc(O)c(=O)cc-3oc3cc(O)c(O)cc23)cc1` [Compound 30], the “Residual activity at 10 uM, Genotype H” value with HBV genotype H RNAseH was determined as 37 ± 8 Percent DMSO control. In the assay with HBV genotype C RNAseH, the “Activity vs. HBV Biochemical vs. gtC” value is on record as “++ (++ inhibition at 20 μM)”. In assay [1], the “Residual activity at 10 uM, Genotype D” value is 23 ± 6 Percent DMSO control and the “Activity vs. HBV Biochemical vs. gtD” value is on record as “+++ (+++ inhibition at 10 μM)”.
As to `COc1ccc2ccccc2c1C=NNC(=O)c1cc(O)c(O)c(O)c1` [Compound 14], in the assay on HBV genotype H RNAseH, the “Inhibition of HBV genotype H RNAseH” value is recorded as “inhibited” and the “Residual activity at 10 uM, Genotype H” value stood at 27 ± 13 Percent DMSO control. For the same compound, in assay [1], the “Residual activity at 10 uM, Genotype D” value is recorded as 46 ± 20 Percent DMSO control and the “Activity vs. HBV Biochemical vs. gtD” value is given as “− (− no inhibition at 60 μM)”.
